From patent US20230278972A1, “SUBSTITUTED HALOALKYL SULFONANILIDE HERBICIDES” (FMC Corporation, priority 2020, published 2023)

Experiments:
[1] = tested on: wheat (Triticum aestivum); assay: Test A1 preemergence, wheat; assay type: in vivo
Summary of the method: (§1)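 Both timings started from seed in a loam-sand blend. Preemergence pots got a directed soil application immediately; postemergence pots were sprayed when seedlings had one or two leaves and stood 2–10 cm. Each compound was prepared in a non-phytotoxic solvent plus surfactant.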

[2] = tested on: Oat, Wild (wild oat, Avena fatua); assay: Test A1 postemergence, Oat, Wild; assay type: in vivo; settings: Postemergence
Summary of the method: as §1

[3] = 31 g ai/ha, 0 to 100 scale (0 no effect, 100 complete control)
[4] = 125 g ai/ha, 0 to 100 scale, 0 no effect, 100 complete control
[5] = 31 g ai/ha, 0 to 100 scale (0 no effect, 100 complete control), 10 days

Structure (SMILES)	Plant response rating, Wheat [1, 3]	Plant response rating, Wheat [1, 4]	Plant response rating, Oat, Wild [2, 5]	Plant response rating, Oat, Wild ([2]; 125 g ai/ha, 0 to 100 scale)
Cc1cc(C)c(-n2nccc(C)c2=O)cc1NS(=O)(=O)C(F)(F)F [Compound 281]	0	20	0	0
COc1cnn(-c2cc(NS(=O)(=O)C(F)(F)F)c(C)cc2C)c(=O)c1OC [Compound 282]	0	80	0	50
Cc1c(NS(=O)(=O)C(F)(F)F)cc(C(=O)N(C)C)c(C)c1Cl [Compound 287]	0	30	0	0
Cc1c(NS(=O)(=O)C(F)(F)F)cc(C(=O)N(C)C)c(C)c1C [Compound 288]	0	0	0	0
Cc1c(NS(=O)(=O)C(F)(F)F)cc(C(=O)N2CCOCC2)c(C)c1C [Compound 289, 1,1,1-Trifluoro-N-[2,3,4-trimethyl-5-(4-morpholinylcarbonyl)phenyl]methanesulfonamide]	30	80		20
Cc1c(NS(=O)(=O)C(F)(F)F)cc(C(=O)N2CCOCC2)c(C)c1Cl [Compound 290]	0	40	0	10
Cc1cc(C)c(C2=NOC3CCCCCC23)cc1NS(=O)(=O)C(F)(F)F (stereo not shown) [Compound 292]	20	90	10	30
Cc1cc(C)c(N(C(=O)OC(C)C)S(=O)(=O)C(F)(F)F)cc1C1=NOC2CCCC12 (stereo not shown) [Compound 295]	0	30	0	0
Cc1cc(C)c(C2=NOC3COCC23)cc1NS(=O)(=O)C(F)(F)F (stereo not shown) [Compound 297]	20	100	20	30
Cc1cc(C)c(N(C(=O)OCC(C)C)S(=O)(=O)C(F)(F)F)cc1C1=NOC2CCCC12 (stereo not shown) [Compound 299]	0	70	0	0
Cc1cc(C)c(N(COC(=O)C(C)(C)C)S(=O)(=O)C(F)(F)F)cc1C1=NOC2COCC12 (stereo not shown) [Compound 301]	0	40	0	10
Cc1cc(Br)c(C2=NOC3CCCC23)cc1NS(=O)(=O)C(F)(F)F (stereo not shown) [Compound 302]	0	20	0	0
Cc1cc(F)c(NS(=O)(=O)C(F)(F)F)cc1C1=NOC2(CCCC2)C1 [Compound 303]	30	90	0	20
CCc1cc(C)c(NS(=O)(=O)C(F)(F)F)cc1C1=NOC2CCCC12 (stereo not shown) [Compound 305]	20	40	20	20
Cc1cc(C2CC2)c(C2=NOC3CCCC23)cc1NS(=O)(=O)C(F)(F)F (stereo not shown) [Compound 307]	10	80	0	20
Cc1cc(C)c(N(COC(=O)C(C)C)S(=O)(=O)C(F)(F)F)cc1C1=NOC2CCCC12 (stereo not shown) [Compound 308]	20	80	0	0
Cc1cc(Br)c(NS(=O)(=O)C(F)(F)F)cc1C1=NOC2(CCCC2)C1 [Compound 309]	0	60	0	20
Cc1cc(F)c(C2=NOC3CCCC23)cc1NS(=O)(=O)C(F)(F)F (stereo not shown) [Compound 310]	0	0	0	10
COc1cc(C)c(NS(=O)(=O)C(F)(F)F)cc1C1=NOC2CCCC12 (stereo not shown) [Compound 312]	0	0	0	20
COC(=O)OCN(c1cc(C2=NOC3CCCC23)c(C)cc1C)S(=O)(=O)C(F)(F)F (stereo not shown) [Compound 315]	20	70	0	20
